Measurements taken from patent US10278395B2, “Functionalized environmentally benign nanoparticles” (North Carolina State University, priority 2013, dated 2019).

Key:
E. coli BL21 (DE3) = assay: Quantitative antimicrobial test on E. coli (wet method, CFU reduction efficiency); type: cell-based, Escherichia coli; conditions: for CFU reduction efficiency: 40 ppm
Description: We performed quantitative antimicrobial tests on Gram-negative E. coli BL21 (DE3), a common human pathogen, and qualitative tests on Gram-negative P. aeruginosa, a human pathogen not susceptible to antimicrobial amines such as BPEI and […]. Therefore, any antimicrobial activity in the P. aeruginosa tests will predominantly stem from silver. The activity of each active agent was determined by comparing the number of colony forming units (CFU) of a reference plate with the CFU of a test plate as depicted in FIG. 20. The reduction of CFU on a test plate with antimicrobial agent is time dependent and concentration dependent. […] We quantified by the antimicrobial reduction efficiency “E” with the following equation The schematic in FIG. 21 describes the wet method procedure that was followed for antimicrobial tests on both E. coli and P. aeruginosa. First, 200 μl of each active agent was placed into separate low retention centrifuge tubes. 100 μl of PBS buffer was added to each tube to baseline the ionic strength, and to adjust the pH value to 7. […] The samples were continuously vortexed. After the bacteria were exposed to the active agent for 1 minute, the survival rate of the bacteria was determined by plating 100 μl of each sample evenly distributed on Luria-Bertani agar plates. The procedure was repeated after 30 minutes of exposure time. After the plating procedure, the petri dishes were sealed and incubated upside-down for 48 h at 37° C.

Pseudomonas aeruginosa = assay: Qualitative antimicrobial test on P. aeruginosa (wet method, growth on plates); type: cell-based; conditions: for antimicrobial effect (in words): 30 minutes incubation time
Description: We performed quantitative antimicrobial tests on Gram-negative E. coli BL21 (DE3), a common human pathogen, and qualitative tests on Gram-negative P. aeruginosa, a human pathogen not susceptible to antimicrobial amines such as BPEI and […]. Therefore, any antimicrobial activity in the P. aeruginosa tests will predominantly stem from silver. The activity of each active agent was determined by comparing the number of colony forming units (CFU) of a reference plate with the CFU of a test plate as depicted in FIG. 20. The reduction of CFU on a test plate with antimicrobial agent is time dependent and concentration dependent. The schematic in FIG. 21 describes the wet method procedure that was followed for antimicrobial tests on both E. coli and P. aeruginosa. First, 200 μl of each active agent was placed into separate low retention centrifuge tubes. 100 μl of PBS buffer was added to each tube to baseline the ionic strength, and to adjust the pH value to 7. […] The samples were continuously vortexed. After the bacteria were exposed to the active agent for 1 minute, the survival rate of the bacteria was determined by plating 100 μl of each sample evenly distributed on Luria-Bertani agar plates. The procedure was repeated after 30 minutes of exposure time. After the plating procedure, the petri dishes were sealed and incubated upside-down for 48 h at 37° C.

In the case of `O=[N+]([O-])[O-].[Ag+]` [AgNO3, silver nitrate], the “Ag concentration at which antimicrobial effects were exhibited” value (E. coli BL21 (DE3)) is reported as 40 ppm Ag, the CFU reduction efficiency (E. coli BL21 (DE3); 1 min vortex time) is reported as 53.33% and the CFU reduction efficiency (E. coli BL21 (DE3); 30 min vortex time) is reported as 96.19%. For the same molecule, the Pseudomonas aeruginosa growth (Pseudomonas aeruginosa; 1 min vortex time or contact time, 10 ppm) was “Yes”, the Pseudomonas aeruginosa growth (Pseudomonas aeruginosa; 1 min vortex time or contact time, 20 ppm) was “Yes” and the “antimicrobial effect (in words)” value (Pseudomonas aeruginosa; 20 ppm Ag) was “no complete antimicrobial effect”. The “antimicrobial effect (in words)” value (Pseudomonas aeruginosa; concentration not given) was “no complete antimicrobial effect”, the Pseudomonas aeruginosa growth (Pseudomonas aeruginosa; 30 min vortex time or contact time, 10 ppm) was “Yes” and the Pseudomonas aeruginosa growth (Pseudomonas aeruginosa; 30 min vortex time or contact time, 20 ppm) was “Yes”.
